The values that follow come from US20120322661A1, “Organized Liquid Mixture” (priority 2010, published 2012).

A short description of this data set: Conductivity measurement for micellar entrapment of fomesafen sodium. Type of data set: physicochemical. Particulars: aqueous solution. As to the method: A series of the experiments were conducted to establish that a combination of a sorbitan ester alkoxylate with a vegetable oil ethoxylate provided a stable micellar solubilization of the water soluble herbicide fomesafen sodium. Studies were also designed to confirm that the fomesafen sodium present within the formulation was partitioned between the micro-domains of the aqueous phase and the micellar oil phase.
The conductivity of an aqueous solution of fomesafen sodium was measured at different concentrations of fomesafen sodium. The results were plotted on a graph with measured conductivity plotted on Y-axis and the corresponding concentration on the X-axis. It was observed that the conductivity increased with the salt concentration and dropped suddenly above 0.45 g/L. It is believed that at this inflection concentration, fomesafen sodium self-aggregated to form an aggregated structure.
In another series of experiments, the formulations according to the present invention exemplified by examples 1 and 2 were tested at various concentrations of fomesafen sodium active ingredients and the resulting conductivity was measured. The results were plotted on a graph with measured conductivity plotted on Y-axis and the corresponding concentration on the X-axis. […]

Take `CS(=O)(=O)N=C([O-])c1cc(Oc2ccc(C(F)(F)F)cc2Cl)ccc1[N+](=O)[O-].[Na+]` [fomesafen sodium, sodium (EZ)-5-(2-chloro-α,α,α-trifluoro-p-tolyloxy)-N-mesyl-2-nitrobenzenecarboximidate]: the “Concentration above which conductivity dropped suddenly (inflection concentration, self-aggregation)” value is on record as “above 0.45 g/L”.
